Results published in US11999727B2 (Tango Therapeutics, Inc., priority 2020, dated 2024).

Tests used:
[1] = tested on: HAP1 MTAP-deleted cell line; assay: Viability assay, MTAP-deleted cell line; format: cell-based; settings: Homo sapiens, HAP1, viability assay, MTAP-deleted cell line; read-out: HAP1 MTAP deleted viability
Text: Table 1 additionally indicates IC50 values in a viability assay for the MTAP-deleted cell line (column 10), indicating the effect of treatment with compound on cell survival.

PRMT5 [2] = target: T1, PRMT5 (Homo sapiens, UniProt O14744); assay: PRMT5 biochemical IC50 assay with no cofactor; settings: PRMT5, no cofactor; read-out: No Cofactor/rel IC50
T1 construct: purchased Viva (custom protein)
Text: Table 1 indicates IC50 values (μM) against PRMT5 for exemplary compounds in the presence of SAM as cofactor, with no cofactor, and with MTA as cofactor, respectively (columns 4-6). […] Ki values can be calculated from the IC50 values as described in the Examples section. As detailed in the Examples section, for the assay performed in the presence of SAM, IC50=Ki×1.5 (Ki=IC50/1.5).

[3] = tested on: HAP1 MTAP-intact cell line; assay: SDMA in-cell western assay, HAP1 MTAP-intact; format: cell-based; settings: Homo sapiens, HAP1, SDMA in-cell western, HAP1 MTAP-intact; read-out: MTAP HAP1 intact IC50
In short: (§1)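 Readout: in-cell western detection of SDMA. Cells: HAP1 expressing endogenous MTAP and an MTAP-null HAP1 counterpart. Output: IC50.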

PRMT5 [4] = target: T1, PRMT5; assay: PRMT5 biochemical IC50 assay with SAM as cofactor; settings: PRMT5, SAM as cofactor; read-out: SAM IC50
PRMT5 [5] = target: T1, PRMT5; assay: PRMT5 biochemical IC50 assay with MTA as cofactor; settings: PRMT5, MTA as cofactor; read-out: MTA IC50
[6] = tested on: HAP1 MTAP-deleted cell line; assay: SDMA in-cell western assay, HAP1 MTAP-deleted; format: cell-based; settings: for IC50: Homo sapiens, HAP1, SDMA in-cell western, HAP1 MTAP-deleted, read-out: HAP1 MTAP deleted IC50; for MTAP intact/deleted ratio: IC50 ratio HAP1 MTAP-intact vs HAP1 MTAP-deleted, SDMA in-cell western
In short: as §1

T1 sequence (O14744 whole entry): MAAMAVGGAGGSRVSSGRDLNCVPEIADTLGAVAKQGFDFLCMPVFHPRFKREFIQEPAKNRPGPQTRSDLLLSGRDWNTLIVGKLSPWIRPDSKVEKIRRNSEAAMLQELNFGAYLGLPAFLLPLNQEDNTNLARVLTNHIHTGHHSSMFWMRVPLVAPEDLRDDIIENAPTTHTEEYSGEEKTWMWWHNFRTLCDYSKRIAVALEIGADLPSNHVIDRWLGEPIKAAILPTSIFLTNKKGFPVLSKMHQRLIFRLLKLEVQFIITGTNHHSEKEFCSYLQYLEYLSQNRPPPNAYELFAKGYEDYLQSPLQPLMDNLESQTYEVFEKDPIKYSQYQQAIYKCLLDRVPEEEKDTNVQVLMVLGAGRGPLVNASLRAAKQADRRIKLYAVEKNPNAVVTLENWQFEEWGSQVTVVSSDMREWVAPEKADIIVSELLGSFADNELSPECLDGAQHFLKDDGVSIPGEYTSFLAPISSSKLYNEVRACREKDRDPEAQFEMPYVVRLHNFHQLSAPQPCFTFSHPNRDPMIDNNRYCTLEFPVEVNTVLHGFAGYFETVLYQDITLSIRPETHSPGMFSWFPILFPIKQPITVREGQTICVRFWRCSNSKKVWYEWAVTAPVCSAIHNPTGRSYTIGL
T1 sequence (Q9BQA1 whole entry partner): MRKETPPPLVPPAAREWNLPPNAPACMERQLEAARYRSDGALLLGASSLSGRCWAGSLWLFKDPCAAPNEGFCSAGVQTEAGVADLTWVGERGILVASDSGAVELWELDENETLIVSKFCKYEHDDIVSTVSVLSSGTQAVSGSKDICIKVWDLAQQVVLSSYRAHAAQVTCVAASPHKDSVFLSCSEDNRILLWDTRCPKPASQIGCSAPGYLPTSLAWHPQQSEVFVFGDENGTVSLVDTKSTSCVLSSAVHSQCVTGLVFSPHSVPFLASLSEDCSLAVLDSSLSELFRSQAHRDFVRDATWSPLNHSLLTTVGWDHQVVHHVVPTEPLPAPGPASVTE

SMILES	IC50 [1]	IC50 (PRMT5 [2])	IC50 [3]	IC50 (PRMT5 [4])	IC50 (PRMT5 [5])	IC50 [6]	MTAP intact/deleted ratio [6]
Cc1cc(NC(=O)C(=O)N2C[C@H](C)CC[C@H]2c2ccc3c(cnn3CCN(C)C)c2)cnc1N (single isomer, unassigned) [Compound 1182]	< 1000 nM	< 50 nM	< 100 nM	< 50 nM	< 50 nM	< 100 nM	B (an IC50 ratio greater than or equal to 3 fold but lower than 10 fold)
CCc1cc(NC(=O)C(=O)N2C[C@@H](C)CC[C@@H]2c2ccc3sc([C@H](C)N(C)C)nc3c2)cnc1N (single isomer, unassigned) [Compound 1188]	< 1000 nM	< 50 nM	< 100 nM	50 to 500 nM	< 50 nM	< 100 nM	A (an IC50 ratio greater than or equal to 10 fold)
Cc1cc(NC(=O)C(=O)N2C[C@H](C)[C@H](CC(C)C)C[C@H]2c2ccc3scnc3c2)cnc1N (single isomer, unassigned) [Compound 1190]	< 1000 nM	< 50 nM	100 to 1000 nM	50 to 500 nM	< 50 nM	< 100 nM	A (an IC50 ratio greater than or equal to 10 fold)
Cc1cc(NC(=O)C(=O)N2C[C@H](C)CC[C@H]2c2cc(F)c3[nH]ncc3c2)cnc1N (single isomer, unassigned) [Compound 1191]	> 10000 nM	> 500 nM	> 1000 nM	> 500 nM	> 500 nM	> 1000 nM	
Cc1cc(NC(=O)C(=O)N2C[C@H](C)CC[C@H]2c2ccc(N3CCN(C)CC3)cc2)cnc1N (single isomer, unassigned) [Compound 1193]	> 10000 nM	> 500 nM	> 1000 nM	> 500 nM	> 500 nM	> 1000 nM	
CCc1cc(NC(=O)C(=O)N2C[C@@H](C)CC[C@@H]2c2ccc3sc(CCN(C)C)nc3c2)cnc1N (single isomer, unassigned) [Compound 1196]	< 1000 nM	< 50 nM	< 100 nM	< 50 nM	< 50 nM	< 100 nM	A (an IC50 ratio greater than or equal to 10 fold)
CCc1cc(NC(=O)C(=O)N2C[C@@H](C)CC[C@@H]2c2ccc(N3CC[C@H]4CCN(C)C[C@H]4C3)cc2)cnc1N (single isomer, unassigned) [Compound 1204]	< 1000 nM	< 50 nM	100 to 1000 nM	50 to 500 nM	< 50 nM	< 100 nM	A (an IC50 ratio greater than or equal to 10 fold)
C[C@H]1CC[C@H](c2ccc3cncn3c2)N(C(=O)C(=O)Nc2cnc(N)c(C3CC3)c2)C1 (single isomer, unassigned) [Compound 1205, N-(6-amino-5-cyclopropylpyridin-3-yl)-2-(2-(imidazo[1,5-a]pyridin-6-yl)-5-methylpiperidin-1-yl)-2-oxoacetamide]	< 1000 nM	< 50 nM	100 to 1000 nM	< 50 nM	< 50 nM	< 100 nM	A (an IC50 ratio greater than or equal to 10 fold)
C[C@H]1CN(C(=O)C(=O)Nc2cnc(N)c(C3CC3)c2)[C@H](c2ccc3scnc3c2)CC1(F)F (single isomer, unassigned) [Compound 1207]	< 1000 nM	50 to 500 nM	100 to 1000 nM	50 to 500 nM	50 to 500 nM	< 100 nM	A (an IC50 ratio greater than or equal to 10 fold)
CCc1cc(NC(=O)C(=O)N2C[C@@H](C)CC[C@@H]2c2ccc(N3CCN(C(C)C)CC3)cc2)cnc1N (single isomer, unassigned) [Compound 1208]	< 1000 nM	< 50 nM	100 to 1000 nM	50 to 500 nM	< 50 nM	< 100 nM	A (an IC50 ratio greater than or equal to 10 fold)
Cc1cc(NC(=O)C(=O)N2C[C@H](C)[C@@H](CC(C)C)C[C@H]2c2ccc3scnc3c2)cnc1N (single isomer, unassigned) [Compound 1210]	1000 to 10000 nM	50 to 500 nM	> 1000 nM	50 to 500 nM	< 50 nM	100 to 1000 nM	
